Assay results from the supplement of paper PMC10307832.

How the values were obtained:
Experiment in all cases: relative viability (nuclei count vs DMSO), 5 days (fraction); higher = more cells survive
NCI-H2347 = tested on: NCI-H2347
Procedure, shortened: (§1)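 Five library-drug doses in √10 steps were combined with a fixed anchor-drug dose, or a single drug was given alone, by pin tool to lung cancer cell lines in 1536-well plates the day after seeding. Nuclei were stained and counted after 5 days. Relative viability is the nuclei count in treated wells over that in vehicle wells, taken as the median of duplicate plates.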

NCI-H2126 = tested on: NCI-H2126
Procedure, shortened: as §1

H3255 = tested on: H3255
Procedure, shortened: as §1

NCI-H358 = tested on: NCI-H358
Procedure, shortened: as §1

PC-14 = tested on: PC-14
Procedure, shortened: as §1

NCI-H2342 = tested on: NCI-H2342
Procedure, shortened: as §1

NCI-H647 = tested on: NCI-H647
Procedure, shortened: as §1

NCI-H727 = tested on: NCI-H727
Procedure, shortened: as §1

HOP-62 = tested on: HOP-62
Procedure, shortened: as §1

NCI-H1915 = tested on: NCI-H1915
Procedure, shortened: as §1

EMC-BAC-2 = tested on: EMC-BAC-2
Procedure, shortened: as §1

NCI-H1993 = tested on: NCI-H1993
Procedure, shortened: as §1

NCI-H322M = tested on: NCI-H322M
Procedure, shortened: as §1

LCLC-97TM1 = tested on: LCLC-97TM1
Procedure, shortened: as §1

NCI-H2085 = tested on: NCI-H2085
Procedure, shortened: as §1

LXF-289 = tested on: LXF-289
Procedure, shortened: as §1

BEN = tested on: BEN
Procedure, shortened: as §1

**Q.** With `COc1cc(N2CCC(C(N)=O)CC2)ccc1Nc1nc(N)c(Cl)c(Nc2ccccc2S(=O)(=O)C(C)C)n1` [HG-5-88-01] + NC(=O)Nc1cc(-c2cccc(F)c2)sc1C(=O)N[C@H]1CCCNC1 [AZD7762] (partner 0.2 µM) as the molecule, how does the relative viability (NCI-H2347; first compound 0.04 µM) read?
**A.** 0.881

**Q.** What about the relative viability (NCI-H2347; first compound 0.1265 µM) of the same molecule?
**A.** 0.9

**Q.** And the relative viability (NCI-H2347; first compound 0.4 µM)?
**A.** 0.82

**Q.** And the relative viability (NCI-H2347; first compound 1.265 µM)?
**A.** 0.718

**Q.** And the relative viability (NCI-H2347; first compound 4 µM)?
**A.** 0.804

**Q.** And the relative viability (NCI-H2126; first compound 0.04 µM)?
**A.** 0.985

**Q.** And the relative viability (NCI-H2126; first compound 0.1265 µM)?
**A.** 1.05

**Q.** What about the relative viability (NCI-H2126; first compound 0.4 µM) of the same molecule?
**A.** 0.961

**Q.** What about the relative viability (NCI-H2126; first compound 1.265 µM) of the same molecule?
**A.** 1.05

**Q.** And the relative viability (NCI-H2126; first compound 4 µM)?
**A.** 0.828

**Q.** And the relative viability (H3255; first compound 0.04 µM)?
**A.** 1.16

**Q.** And the relative viability (H3255; first compound 0.1265 µM)?
**A.** 1.01

**Q.** And the relative viability (H3255; first compound 0.4 µM)?
**A.** 0.916

**Q.** What about the relative viability (H3255; first compound 4 µM) of the same molecule?
**A.** 0.699

**Q.** And the relative viability (NCI-H358; first compound 0.04 µM)?
**A.** 0.498

**Q.** And the relative viability (NCI-H358; first compound 0.1265 µM)?
**A.** 0.503

**Q.** What about the relative viability (NCI-H358; first compound 0.4 µM) of the same molecule?
**A.** 0.451

**Q.** What about the relative viability (NCI-H358; first compound 1.265 µM) of the same molecule?
**A.** 0.223

**Q.** And the relative viability (NCI-H358; first compound 4 µM)?
**A.** 0.245

**Q.** What about the relative viability (PC-14; first compound 0.04 µM) of the same molecule?
**A.** 0.345

**Q.** And the relative viability (PC-14; first compound 0.1265 µM)?
**A.** 0.315

**Q.** What about the relative viability (PC-14; first compound 0.4 µM) of the same molecule?
**A.** 0.343

**Q.** What about the relative viability (PC-14; first compound 1.265 µM) of the same molecule?
**A.** 0.38

**Q.** What about the relative viability (PC-14; first compound 4 µM) of the same molecule?
**A.** 0.0818

**Q.** What about the relative viability (NCI-H2342; first compound 0.04 µM) of the same molecule?
**A.** 0.47

**Q.** What about the relative viability (NCI-H2342; first compound 0.1265 µM) of the same molecule?
**A.** 0.489

**Q.** What about the relative viability (NCI-H2342; first compound 0.4 µM) of the same molecule?
**A.** 0.447

**Q.** And the relative viability (NCI-H2342; first compound 4 µM)?
**A.** 0.408

**Q.** And the relative viability (NCI-H647; first compound 0.04 µM)?
**A.** 0.455

**Q.** And the relative viability (NCI-H647; first compound 0.1265 µM)?
**A.** 0.405

**Q.** And the relative viability (NCI-H647; first compound 0.4 µM)?
**A.** 0.472

**Q.** What about the relative viability (NCI-H647; first compound 1.265 µM) of the same molecule?
**A.** 0.394

**Q.** What about the relative viability (NCI-H647; first compound 4 µM) of the same molecule?
**A.** 0.433

**Q.** What about the relative viability (NCI-H727; first compound 0.04 µM) of the same molecule?
**A.** 0.729

**Q.** And the relative viability (NCI-H727; first compound 0.1265 µM)?
**A.** 0.633

**Q.** What about the relative viability (NCI-H727; first compound 0.4 µM) of the same molecule?
**A.** 0.597

**Q.** What about the relative viability (NCI-H727; first compound 4 µM) of the same molecule?
**A.** 0.377

**Q.** And the relative viability (HOP-62; first compound 0.04 µM)?
**A.** 0.463

**Q.** What about the relative viability (HOP-62; first compound 0.1265 µM) of the same molecule?
**A.** 0.736

**Q.** What about the relative viability (HOP-62; first compound 0.4 µM) of the same molecule?
**A.** 0.654

**Q.** What about the relative viability (HOP-62; first compound 1.265 µM) of the same molecule?
**A.** 0.55

**Q.** And the relative viability (HOP-62; first compound 4 µM)?
**A.** 0.584

**Q.** And the relative viability (NCI-H1915; first compound 0.04 µM)?
**A.** 0.69

**Q.** And the relative viability (NCI-H1915; first compound 0.1265 µM)?
**A.** 0.697

**Q.** And the relative viability (NCI-H1915; first compound 0.4 µM)?
**A.** 0.689

**Q.** What about the relative viability (NCI-H1915; first compound 1.265 µM) of the same molecule?
**A.** 0.741

**Q.** What about the relative viability (NCI-H1915; first compound 4 µM) of the same molecule?
**A.** 0.463

**Q.** What about the relative viability (EMC-BAC-2; first compound 0.04 µM) of the same molecule?
**A.** 1.09

**Q.** What about the relative viability (EMC-BAC-2; first compound 0.1265 µM) of the same molecule?
**A.** 1.21

**Q.** What about the relative viability (EMC-BAC-2; first compound 0.4 µM) of the same molecule?
**A.** 0.922

**Q.** And the relative viability (EMC-BAC-2; first compound 1.265 µM)?
**A.** 0.975

**Q.** And the relative viability (EMC-BAC-2; first compound 4 µM)?
**A.** 0.65

**Q.** What about the relative viability (NCI-H1993; first compound 0.04 µM) of the same molecule?
**A.** 0.845

**Q.** And the relative viability (NCI-H1993; first compound 0.1265 µM)?
**A.** 0.875

**Q.** And the relative viability (NCI-H1993; first compound 0.4 µM)?
**A.** 0.77

**Q.** And the relative viability (NCI-H1993; first compound 4 µM)?
**A.** 0.558

**Q.** And the relative viability (NCI-H322M; first compound 0.04 µM)?
**A.** 0.665

**Q.** What about the relative viability (NCI-H322M; first compound 0.1265 µM) of the same molecule?
**A.** 0.61

**Q.** And the relative viability (NCI-H322M; first compound 0.4 µM)?
**A.** 0.465

**Q.** What about the relative viability (NCI-H322M; first compound 1.265 µM) of the same molecule?
**A.** 0.454

**Q.** What about the relative viability (NCI-H322M; first compound 4 µM) of the same molecule?
**A.** 0.466

**Q.** And the relative viability (LCLC-97TM1; first compound 0.04 µM)?
**A.** 0.251

**Q.** And the relative viability (LCLC-97TM1; first compound 0.1265 µM)?
**A.** 0.262

**Q.** What about the relative viability (LCLC-97TM1; first compound 0.4 µM) of the same molecule?
**A.** 0.231

**Q.** What about the relative viability (LCLC-97TM1; first compound 1.265 µM) of the same molecule?
**A.** 0.225

**Q.** What about the relative viability (LCLC-97TM1; first compound 4 µM) of the same molecule?
**A.** 0.0952

**Q.** What about the relative viability (NCI-H2085; first compound 0.04 µM) of the same molecule?
**A.** 1.08

**Q.** And the relative viability (NCI-H2085; first compound 0.1265 µM)?
**A.** 0.969

**Q.** What about the relative viability (NCI-H2085; first compound 0.4 µM) of the same molecule?
**A.** 0.922

**Q.** And the relative viability (NCI-H2085; first compound 1.265 µM)?
**A.** 0.964

**Q.** What about the relative viability (NCI-H2085; first compound 4 µM) of the same molecule?
**A.** 0.667

**Q.** And the relative viability (LXF-289; first compound 0.04 µM)?
**A.** 1.11

**Q.** And the relative viability (LXF-289; first compound 0.1265 µM)?
**A.** 1.05

**Q.** What about the relative viability (LXF-289; first compound 0.4 µM) of the same molecule?
**A.** 1.06

**Q.** What about the relative viability (LXF-289; first compound 1.265 µM) of the same molecule?
**A.** 1.12

**Q.** And the relative viability (LXF-289; first compound 4 µM)?
**A.** 1.11

**Q.** What about the relative viability (BEN; first compound 0.04 µM) of the same molecule?
**A.** 0.47

**Q.** What about the relative viability (BEN; first compound 0.1265 µM) of the same molecule?
**A.** 0.69

**Q.** And the relative viability (BEN; first compound 0.4 µM)?
**A.** 0.635

**Q.** What about the relative viability (BEN; first compound 1.265 µM) of the same molecule?
**A.** 0.615

**Q.** What about the relative viability (BEN; first compound 4 µM) of the same molecule?
**A.** 0.576
